Test results published in patent US6908945B2, “Ester compound and its use” (Sumitomo Chemical Company, Limited, priority 2002, dated 2005).

Key:
[1] = test system: female common mosquitoes (Culex pipiens pallens); assay: Knock-down test, oil solution sprayed into cubic chamber, common mosquitoes; format: in vivo; conditions: 0.7 ml of 0.00625% oil solution sprayed, 70 cm cubic chamber, ten female Culex pipiens pallens, counted for 10 minutes
From the text: A solution of 0.00625 part of the present compound (1R,cis-E) dissolved with 10 parts of dichloromethane was mixed with 89.99375 parts of deodorized kerosene to give a […] oil solution.
Ten female common mosquitoes (Culex pipiens pallens) were left in a cubic chamber (70 cm at side). Seven-tenths (0.7) ml of the 0.00625% oil solution of the present compound prepared above was sprayed with a spray gun at a pressure of 8.8×10^4 Pa from a small window on the side of the chamber. Then, the number of the knocked-down insects was counted at times for 10 minutes. The time for knocking down half of the tested insects was 1.3 minute.
The same test except that 3-phenoxybenzyl (1R,cis)-3-((E)-2-cyano-1-propenyl)-2,2-dimethylcyclopropanecarboxylate, which is a compound described in Indian Patent No. 152306, was used in place of the present compound was performed for reference. The KT50 value was 8.0 minutes.

Adult houseflies = assay: Knock-down test, oil solution sprayed into cubic chamber, adult houseflies; format: in vivo; conditions: 70 cm cubic chamber, 5 male and 5 female adult houseflies, counted for 10 minutes; for time for knocking down half of the tested insects (KT50): 0.7 ml of 0.00625% oil solution sprayed, two repetitions
From the text: A solution of 0.025 part of the present compound prepared by the production example mentioned above dissolved with 10 parts of dichloromethane was mixed with 89.9975 parts of deodorized kerosene to give a […] oil solution.
Adult houseflies (5 males and 5 females) were left in a cubic chamber (70 cm at side). Seven-tenths (0.7) ml of the 0.025% oil solution of the present compound prepared above was sprayed with a spray gun at a pressure of 8.8×10^4 Pa from a small window on the side of the chamber. Then, the number of the knocked-down insects was counted at times for 10 minutes. The time for knocking down half of the tested insects was 1.0 minute.
A solution of 0.00625 part of the present compound prepared by the production example mentioned above dissolved with 10 parts of dichloromethane was mixed with 89.99375 parts of deodorized kerosene to give a 0.00625% oil solution.
Adult houseflies (5 males and 5 females) were left in a cubic chamber (70 cm at side). Seven-tenths (0.7) ml of the 0.00625% oil solution of the present compound prepared above was sprayed with a spray gun at a pressure of 8.8×10^4 Pa from a small window on the side of the chamber. Then, the number of the knocked-down insects was counted at times for 10 minutes (two repetitions). The time for knocking down half of the tested insects (KT50) was observed. The KT50 value was 1.1 minutes.
The same test except that 4-methoxymethy-2,3,5,6-tetrafluorobenzyl (1R,trans)-3-(2-fluoro-1-propenyl)-2,2-dimethylcyclopropanecarboxylate, which is a compound of Example 12 of WO 99/32426, was used in place of the present compound was performed for reference. The KT50 value was 5.0 minutes.

| Structure (SMILES) | time for knocking down half of the tested insects (KT50) [1] | time for knocking down half of the tested insects (KT50) (Adult houseflies) | time for knocking down half of the tested insects (Adult houseflies; 0.7 ml of 0.025% oil solution sprayed) |
| --- | --- | --- | --- |
| C/C(C#N)=C\[C@H]1[C@@H](C(=O)OCc2cccc(Oc3ccccc3)c2)C1(C)C (relative stereo) [3-phenoxybenzyl (1R,cis)-3-((E)-2-cyano-1-propenyl)-2,2-dimethylcyclopropanecarboxylate, reference compound] | 8.0 min | – | – |
| COCc1c(F)c(F)c(COC(=O)[C@@H]2[C@H](C=C(C)F)C2(C)C)c(F)c1F (relative stereo) [Example 12 of WO 99/32426, 4-methoxymethy-2,3,5,6-tetrafluorobenzyl (1R,trans)-3-(2-fluoro-1-propenyl)-2,2-dimethylcyclopropanecarboxylate, reference compound] | – | 5.0 min | – |
| COCc1c(F)c(F)c(COC(=O)C2C(C=C(C)C#N)C2(C)C)c(F)c1F [present compound (1R,cis-E)] | 1.3 min | – | – |
| COCc1c(F)c(F)c(COC(=O)C2C(C=C(C)C#N)C2(C)C)c(F)c1F (centres unmarked) [present compound, 4-methoxymethy-2,3,5,6-tetrafluorobenzyl 3-(2-cyano-1-propenyl)-2,2-dimethylcyclopropanecarboxylate] | – | 1.1 min | 1.0 min |
